Experimental data as given in patent publication US20020106384A1, “Cosmetic compositions and methods for lightening the skin” (priority 1999, published 2002).

Test system: B16-F1 mouse melanoma cells
Experiment: B16 F1 melanoma cell based assay for melanogenesis (melanin content in media)
Details: for Melanin (% Control) Alone: 72 hours, absorbance at 530 nm, lower = more inhibition
Experimental: The ability to inhibit melanin production was assessed using B16 cells, a mouse melanoma cell line.
B16-F1 mouse melanoma cells (obtained from American Type Culture Collection, MD, USA) were maintained in 75 cm^2 culture flasks in RPMI 1640 medium supplemented with L-glutamine (4 mM) and 10% fetal bovine serum (FBS) at 37° C. in a water-saturated, 5% CO2 in air atmosphere. Sub-confluent B16 cells were seeded in 96 well microtiter plates at a density of 5×10^3 cells/well in 200 μl of DMEM containing 10% FBS and 1% penicillin/streptomycin without phenol red at 37° C. under 5% CO2. After 24 hours, the media was replaced with fresh DMEM media containing various compounds at designated concentrations. Cells were incubated for 72 hours at which time melanin was visible in the control well (dark color) where no testing compounds were added.
The amount of melanin produced for each well was quantified by assessing melanin released into the culture media. The pigment containing media from each well was transferred to a clean 96 well plate and the melanin content was quantified by reading the absorbance at 530 nm. Melanin content in each well was calculated as a percent of the control where cells were maintained in DMEM medium or solvent control.
Melanin content in the media was expressed as percent of control, therefore the lower the value is, the more inhibition resulted from the tested compounds.

Structure (SMILES): CC(O)C(=O)O (racemic) [DL-lactic acid]
- inhibitory effects on melanin production (B16 cell assay, dose-dependent): strong inhibitory effects
- Melanin (% Control) Alone (co-active alone at 2 mM): 103.8 ± 20.5 % Control
- Melanin (% Control) Alone (co-active alone at 5 mM): 98 ± 19.3 % Control
- Melanin (% Control) Alone (co-active alone at 10 mM): 79 ± 16.8 % Control
- Melanin (% Control) Alone (co-active alone at 15 mM): 33.5 ± 7.9 % Control

Structure (SMILES): N[C@@H](Cc1ccccc1)C(=O)O [L-phenylalanine]
- Melanin (% Control) Alone (co-active alone at 2 mM): 84.9 ± 16.9 % Control
- Melanin (% Control) Alone (co-active alone at 5 mM): 48.3 ± 10 % Control
- Melanin (% Control) Alone (co-active alone at 10 mM): 10 ± 2.7 % Control
- Melanin (% Control) Alone (co-active alone at 15 mM): 49.7 ± 9.9 % Control

Structure (SMILES): NC(=O)c1cccnc1 [Niacinamide]
- Melanin (% Control) Alone (co-active alone at 2 mM): 94.8 ± 19 % Control
- Melanin (% Control) Alone (co-active alone at 5 mM): 83.9 ± 16.7 % Control
- Melanin (% Control) Alone (co-active alone at 10 mM): 66.1 ± 13 % Control
- Melanin (% Control) Alone (co-active alone at 15 mM): 50.3 ± 10.2 % Control
